The assay has as its target full length NS3/4a (Hepatitis C virus genotype 1b (isolate BK) (HCV), UniProt P26663). The assay is described as follows: NS3 Protease Assay (Example A), FRET-based. Type of assay: biochemical. The method in brief:
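Initial rates were taken from fluorescence progress curves over 30 min at room temperature, and IC50 was fitted across replicates. In-house full-length NS3/4a cleaved a FRET peptide (5-FAMsp/QXL520) from the NS4A/B site. Medium: 50 mM Tris pH8, 20 mM DTT, 1% CHAPS, 10% glycerol, 5% DMSO.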

[1] abbreviates: HCV NS3 protease assay, full length NS3/4a, read-out: Assay A IC50 (μM) average.
The mark [2] stands for this setting: read-out: IC50 against the protease activity of the full length NS3/4a.
Setting [3] is: stated as IC50 less than 30 μM or at least 40% inhibition at a concentration of 100 μM, read-out: IC50 against the protease activity of the full length NS3/4a.

Molecules are shown by their SMILES. Like-named read-outs stand apart in the source and are kept apart here. Some results are limits rather than exact numbers.

In patent US9145354B2, “Pharmaceutical compounds” (priority 2011, dated 2015) one finds IC50 and inhibition data, which are given here for 21 molecules.

The term inhibition denotes the percentage by which the read-out fell short of the control.

full length NS3/4a, sequence (P26663 1027-1657): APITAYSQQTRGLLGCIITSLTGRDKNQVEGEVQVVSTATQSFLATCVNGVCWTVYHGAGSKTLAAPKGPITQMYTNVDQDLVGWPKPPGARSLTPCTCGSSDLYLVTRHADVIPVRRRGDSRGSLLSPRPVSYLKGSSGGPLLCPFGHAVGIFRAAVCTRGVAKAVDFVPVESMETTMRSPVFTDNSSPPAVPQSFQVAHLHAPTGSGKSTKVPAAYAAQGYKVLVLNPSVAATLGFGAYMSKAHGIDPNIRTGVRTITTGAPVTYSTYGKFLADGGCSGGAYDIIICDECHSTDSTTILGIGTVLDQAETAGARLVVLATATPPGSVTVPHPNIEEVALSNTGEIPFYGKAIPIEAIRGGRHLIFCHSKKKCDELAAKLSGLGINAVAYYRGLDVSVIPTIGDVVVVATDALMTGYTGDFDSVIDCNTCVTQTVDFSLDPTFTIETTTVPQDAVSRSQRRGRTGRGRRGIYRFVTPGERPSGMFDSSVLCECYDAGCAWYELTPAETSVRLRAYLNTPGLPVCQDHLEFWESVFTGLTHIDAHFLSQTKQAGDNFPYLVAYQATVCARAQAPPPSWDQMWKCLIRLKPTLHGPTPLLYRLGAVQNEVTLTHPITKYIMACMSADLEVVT

Regarding `CC[C@@H](N[C@H](C)CC(N)=O)c1ccc(Cl)c(C(=O)c2ccc(N)c(C#N)c2)c1F` [Example 216, (3R)-3-{[(1R)-1-{3-[(4-amino-3-cyanophenyl)carbonyl]-4-chloro-2-fluorophenyl}propyl]amino} butanamide], the IC50 under setting [1] came out at 0.48 µM and the IC50 under setting [2] is less than 1 µM.

With `CC[C@@H](N[C@H](C)CC(N)=O)c1ccc(Cl)c(C(=O)c2ccc(OC)c(C#N)c2)c1F` [Example 217, (3R)-3-{[(1R)-1-{4-chloro-3-[(3-cyano-4-methoxyphenyl)carbonyl]-2-fluorophenyl}propyl]amino}butanamide], testing at 30 µM (@ 30 uM) gave an inhibition of 38%.

`CC[C@@H](N[C@@H](CC(N)=O)C(C)C)c1ccc(Cl)c(C(=O)c2ccc(N)nc2)c1F` [Example 218, (3S)-3-{[(1R)-1-{3-[(6-aminopyridin-3-yl)carbonyl]-4-chloro-2-fluorophenyl}propyl]amino}-4-methylpentanamide] had an inhibition at 1 µM of 42%. Also, under setting [2], the IC50 fell in the range of 1 to 5 µM.

As to `CC[C@@H](N[C@H](CC(N)=O)C(C)C)c1ccc(Cl)c(C(=O)c2ccc(N)nc2)c1F` [Example 219, (3R)-3-{[(1R)-1-{3-[(6-aminopyridin-3-yl)carbonyI]-4-chloro-2-fluorophenyl}propyl]amino}-4-methylpentanamide], the IC50 is 7.5 µM under setting [1] and less than 30 µM under setting [3].

As to `[2H]C([2H])([2H])C([2H])([2H])[C@@H](N[C@H](C)CC(N)=O)c1ccc(Cl)c(C(=O)c2ccc(N)c(Cl)c2)c1F` [Example 220, (3R)-3-{[(1R)-1-{3-[(4-amino-3-chlorophenyl)carbonyl]-4-chloro-2-fluorophenyl}(2,2,3,3,3-deutero)propyl]amino} butanamide], under setting [1], the IC50 turned out to be 0.26 µM.

As to `[2H]C([2H])([2H])C([2H])([2H])[C@@H](N[C@H](C)CC(N)=O)c1ccc(Cl)c(C(=O)c2ccc(N)c(C)c2)c1F` [Example 221, (3R)-3-{[(1R)-1-{3-[(4-amino-3-methylphenyl)carbonyl]-4-chloro-2-fluorophenyl}(2,2,3,3,3-deutero)propyl]amino} butanamide], the IC50 under setting [1] turned out to be 0.36 µM.

`CC[C@@H](N)c1ccc(Cl)c(C(=O)c2ccc(C#N)c(OC)c2)c1F` [Example 222, 4-({3-[(1R)-1-aminopropyl]-6-chloro-2-fluorophenyl}carbonyl)-2-methoxybenzonitrile] showed an inhibition at 0.03 µM of 45%. For the same molecule, under setting [3], the IC50 is less than 30 µM.

As to `COc1ccc([C@H](N[C@H](C)CC(N)=O)C2CC2)c(F)c1C(=O)c1cccc(F)c1` [Example 223, (3R)-3-{[(R)-cyclopropyl({2-fluoro-3-[(3-fluorophenyl)carbonyl]-4-methoxyphenyl})methyl]amino}butanamide], the IC50 under setting [1] amounted to 3.1 µM and the IC50 under setting [2] is 1 to 5 µM.

`CC[C@H](CC(N)=O)N[C@H](CC)c1ccc(Cl)c(C(=O)c2ccc(N)nc2)c1F` [Example 226, (3R)-3-{[(1R)-1-{3-[(6-aminopyridin-3-yl)carbonyl]-4-chloro-2-fluorophenyl}propyl]amino}pentanamide]: the IC50 was 1.1 µM under setting [1] and 1 to 5 µM under setting [2].

As to `CC[C@@H](N[C@H](C)CC(N)=O)c1ccc(Cl)c(C(=O)c2cccc(O)c2)c1F` [Example 228, (3R)-3-{[(1R)-1-{4-chloro-2-fluoro-3-[(3-hydroxyphenyl)carbonyl]phenyl}propyl]amino}butanamide], the IC50 is 0.73 µM under setting [1] and less than 1 µM under setting [2].

For the molecule `CC[C@@H](N[C@H](C)CC(N)=O)c1ccc(Cl)c(C(=O)c2ccc(O)cc2)c1F` [Example 231, (3R)-3-{[(1R)-1-{4-chloro-2-fluoro-3-[(4-hydroxyphenyl)carbonyl]phenyl}propyl]amino}butanamide], the IC50 under setting [1] is 2.1 µM and the IC50 under setting [2] fell in the range of 1 to 5 µM.

For the setting “@ 10 uM”, `CC[C@@H](N[C@H](C)CC(N)=O)c1ccc(Cl)c(C(=O)c2ccc(N)nn2)c1F` [Example 233, (3R)-3-{[(1R)-1-{3-[(6-aminopyridazin-3-yl)carbonyl]-4-chloro-2-fluorophenyl}propyl]amino}butanamide] had an inhibition at 10 µM of 40%. In addition, the IC50 under setting [3] is less than 30 µM.

In turn, `CC[C@@H](N[C@H](C)CC(N)=O)c1ccc(Cl)c(C(=O)c2ccc(C#N)c(OC)c2)c1F` [Example 236, (3R)-3-{[(1R)-1-{4-chloro-3-[(4-cyano-3-methoxyphenyl)carbonyl]-2-fluorophenyl}propyl]amino}butanamide] gave an inhibition at 1 µM of 56%. The IC50 under setting [3] is less than 30 µM.

Regarding `CC[C@@H](N[C@@H](C)CC(=O)NCCN)c1ccc(Cl)c(C(=O)c2ccc(N)nc2)c1F` [Example 240, (3S)-N-(2-aminoethyl)-3-{[(1 R)-1-{3-[(6-aminopyridin-3-yl)carbonyl]-4-chloro-2-fluorophenyl}propyl]amino}-butanamide], at 0.03 µM the inhibition was 48%. Moreover, under setting [3], the IC50 is less than 30 µM.

`CC[C@@H](N[C@H](C)CC(=O)NCCN)c1ccc(Cl)c(C(=O)c2ccc(N)nc2)c1F` [Example 241, (3R)-N-(2-aminoethyl)-3-{[(1R)-1-{3-[(6-aminopyridin-3-yl)carbonyl]-4-chloro-2-fluorophenyl}propyl]amino}-butanamide]: the IC50 under setting [1] is 0.036 µM.

`CC[C@@H](N[C@H](C)CC(=O)NCCO)c1ccc(Cl)c(C(=O)c2ccc(N)nc2)c1F` [Example 243, (3R)-3-{[(1R)-1-{3-[(6-aminopyridin-3-yl)carbonyl]-4-chloro-2-fluorophenyl}propyl]amino}-N-(2-hydroxyethyl)butanamide]: under setting [1], the IC50 was determined as 0.43 µM.

As for `CC[C@@H](N[C@H](C)CC(N)=O)c1ccc(Cl)c(C(=O)c2ccc(N)c(Cl)c2)c1F` [Example 244, (3R)-3-{[(1R)-1-{3-[(4-amino-3-chlorophenyl)carbonyl]-4-chloro-2-fluorophenyl}propyl]amino} butanamide], the IC50 under setting [1] is 0.38 µM.

Regarding `C[C@H](CC(N)=O)N[C@@H](c1ccc(Cl)c(C(=O)c2ccc(C#N)cn2)c1F)C1CC1` [Example 245, (3R)-3-{[(R)-{4-chloro-3-[(5-cyanopyridin-2-yl)carbonyl]-2-fluorophenyl}(cyclopropyl)methyl]amino}butanamide], the IC50 by setting is: under setting [1], 3.4 µM; under setting [2], 1 to 5 µM.

For the molecule `CC[C@@H](N[C@H](C)CC(N)=O)c1ccc(Cl)c(C(=O)c2cc(C)c(N)cn2)c1F` [Example 246, (3R)-3-{[(1R)-1-{3-[(5-amino-4-methylpyridin-2-yl)carbonyl]-4-chloro-2-fluorophenyl}propyl]amino} butanamide], the IC50 is 3.9 µM under setting [1] and 1 to 5 µM under setting [2].

Consider `CC[C@@H](N[C@H](C)CC(N)=O)c1ccc(Cl)c(C(=O)c2ccc3c(c2)OCC(=O)N3)c1F` [Example 248, (3R)-3-{[(1R)-1-{4-chloro-2-fluoro-3-[(3-oxo-3,4-dihydro-2H-1,4-benzoxazin-7-I)carbonyl]phenyl}propyl]amino}butanamide], for which the IC50 was 2 µM under setting [1] and 1 to 5 µM under setting [2].

For the molecule `CC[C@@H](N[C@H](C)CC(N)=O)c1ccc(OC)c(C(=O)c2ccc(N)nc2)c1F` [Example 253, (3R)-3-{[(1R)-1-{3-[(6-aminopyridin-3-yl)carbonyl]-2-fluoro-4-methoxyphenyl}propyl]amino}butanamide], the IC50 is, setting by setting: under setting [1], 1.4 µM; under setting [2], 1 to 5 µM.
